# Test results taken from patent US11060059B2, “Methods of producing T cell populations enriched for stable regulatory T-cells” (The USA, as represented by the Secretary, Department of …, priority 2011, dated 2021).
# Tested on: Foxp3+Helios+ Tregs
# Experiment: Foxp3 and Helios staining (flow cytometry) of Tregs stimulated/expanded in vitro with anti-CD3/anti-CD28 and IL-2
# Format: cell-based, human
# Description: To determine if a correlation exists between Helios expression and TSDR methylation status, four different CD4^+ subsets (Foxp3^+Helios^+, Foxp3^+Helios^−, Foxp3^−Helios^+, and Foxp3^−Helios^−) were isolated and expression of various proteins analyzed. Briefly, human PBMCs were obtained from 20-80 year-old healthy male donors by Department of Transfusion Medicine at National Institutes of Health. CD4^+CD25^hiCD127^− Tregs were isolated by cell sorting on a FACSAria. Sorted Treg (0.2×10^6) cells were re-suspended in complete RPMI-1640 supplemented with 10% heat-inactivated fetal calf serum, and stimulated in plates coated with anti-CD3ϵ (10 μg/ml) and anti-CD28 (2 μg/ml) in the presence of IL-2 (150 U/ml) for 5-6 days. Stimulated cells were washed in RPMI 1640-10 media twice and expanded in complete RPMI 1640-10 with recombinant IL-2 (150 U/ml) for 5-10 days in the presence of Treg-expander magnetic beads (Cell:Bead=4:1). To evaluate the purity of sorted Tregs, cells were stained with anti-Foxp3 and anti-Helios (Biolegend) in Foxp3-staining buffer (eBioscience). All flow cytometry was performed on a FACS LSRII flow cytometer (Becton Dickinson) and analyzed with FlowJo software (TreeStar).
# Initially, two potential candidates were selected for testing: TGFβ, and the toll-like receptor 9 (TLR9) agonist CpG oligodeoxynucleotide (ODN). […]
compound,measurement,setting,value
CCCCNc1nc(N)c2[nH]c(=O)n(Cc3ccc(C(=O)NCC(=O)O)cc3)c2n1 [CL264],effect on the stabilization of Foxp3+Helios+ T cells,TLR 7 / TLR 8 agonists at 10 μM compared with CpG ODN (FIG. 6B),Neither the TLR 8 nor the TLR 7 agonists had any effect
"TGFβ: TGFβ, candidate factor added at 5 ng/ml during Treg stimulation","stabilization / increase of the Foxp3+Helios+ population, single agents","CD4+CD25+ cells, 5 days with agent alone, then 7 days without (FIG. 2B)",modest increase
